From patent US10004701B2, “Methods and compositions for treating infection” (UNIVERSITY OF ROCHESTER, priority 2012, dated 2018)
Counter-ions that a name gives are not always drawn. Like-named read-outs stand apart in the source and are kept apart here.

Assays:
Test in all cases: AK assay 384-well format, Prestwick library screening
[1] = tested on: P. aeruginosa; assay type: cell-based, Pseudomonas aeruginosa; settings: 50 μM final drug concentration; for fold induction at 50 µM: Pseudomonas aeruginosa, 3 h
[2] = tested on: A. baumannii strain 98-37-09; assay type: cell-based, Acinetobacter baumannii; settings: 50 μM final drug concentration; for fold induction at 50 µM: Acinetobacter baumannii, 983709, 3 h
[3] = tested on: E. coli; assay type: cell-based, Escherichia coli; settings: 50 μM final drug concentration; for fold induction at 50 µM: Escherichia coli, 3 h
[4] = tested on: K. pneumoniae; assay type: cell-based, Klebsiella pneumoniae; settings: 50 μM final drug concentration; for fold induction at 50 µM: Klebsiella pneumoniae, 3 h
[5] = tested on: E. cloacae; assay type: cell-based, Enterobacter cloacae; settings: 50 μM final drug concentration; for fold induction at 50 µM: Enterobacter cloacae, 3 h
[6] = tested on: S. aureus strain USA300-0114; assay type: cell-based, Staphylococcus aureus; settings: 50 μM final drug concentration; for fold induction at 50 µM: Staphylococcus aureus, USA300, 3 h
[7] = tested on: E. faecium; assay type: cell-based, Enterococcus faecium; settings: 50 μM final drug concentration; for fold induction at 50 µM: Enterococcus faecium, 3 h
[8] = 384-well format, cutoff for positive-scoring molecules 3-fold increase, read-out: AK-based Prestwick Library Screening Results, P. aeruginosa (increase in extracellular AK activity)
[9] = 384-well format, cutoff for positive-scoring molecules 3-fold increase, read-out: AK-based Prestwick Library Screening Results, A. baumannii (increase in extracellular AK activity)
[10] = 384-well format, cutoff for positive-scoring molecules 3-fold increase, read-out: AK-based Prestwick Library Screening Results, E. coli (increase in extracellular AK activity)
[11] = 384-well format, cutoff for positive-scoring molecules 3-fold increase, read-out: AK-based Prestwick Library Screening Results, K. pneumoniae (increase in extracellular AK activity)
[12] = 384-well format, cutoff for positive-scoring molecules 3-fold increase, read-out: AK-based Prestwick Library Screening Results, E. cloacae (increase in extracellular AK activity)
[13] = 384-well format, cutoff for positive-scoring molecules 3-fold increase, read-out: AK-based Prestwick Library Screening Results, S. aureus (increase in extracellular AK activity)
[14] = 384-well format, cutoff for positive-scoring molecules 3-fold increase, read-out: AK-based Prestwick Library Screening Results, E. faecium (increase in extracellular AK activity)
[15] = planktonic P. aeruginosa, cutoff for positive-scoring molecules 3-fold increase, read-out: AK-based Prestwick Library Screening Results, P. aeruginosa (increase in extracellular AK activity)
[16] = planktonic A. baumannii, cutoff for positive-scoring molecules 3-fold increase, read-out: AK-based Prestwick Library Screening Results, A. baumannii (increase in extracellular AK activity)
[17] = planktonic E. coli, cutoff for positive-scoring molecules 3-fold increase, read-out: AK-based Prestwick Library Screening Results, E. coli (increase in extracellular AK activity)
[18] = planktonic K. pneumoniae, cutoff for positive-scoring molecules 3-fold increase, read-out: AK-based Prestwick Library Screening Results, K. pneumoniae (increase in extracellular AK activity)
[19] = planktonic E. cloacae, cutoff for positive-scoring molecules 3-fold increase, read-out: AK-based Prestwick Library Screening Results, E. cloacae (increase in extracellular AK activity)
[20] = planktonic S. aureus, cutoff for positive-scoring molecules 3-fold increase, read-out: AK-based Prestwick Library Screening Results, S. aureus (increase in extracellular AK activity)
[21] = planktonic E. faecium, cutoff for positive-scoring molecules 3-fold increase, read-out: AK-based Prestwick Library Screening Results, E. faecium (increase in extracellular AK activity)
[22] = planktonic P. aeruginosa, 384-well, cutoff for positive-scoring molecules 3-fold increase, read-out: AK-based Prestwick Library Screening Results: P. aeruginosa (increase in extracellular AK activity)
[23] = planktonic A. baumannii, 384-well, cutoff for positive-scoring molecules 3-fold increase, read-out: AK-based Prestwick Library Screening Results: A. baumannii (increase in extracellular AK activity)
[24] = planktonic E. coli, 384-well, cutoff for positive-scoring molecules 3-fold increase, read-out: AK-based Prestwick Library Screening Results: E. coli (increase in extracellular AK activity)
[25] = planktonic K. pneumoniae, 384-well, cutoff for positive-scoring molecules 3-fold increase, read-out: AK-based Prestwick Library Screening Results: K. pneumoniae (increase in extracellular AK activity)
[26] = planktonic E. cloacae, 384-well, cutoff for positive-scoring molecules 3-fold increase, read-out: AK-based Prestwick Library Screening Results: E. cloacae (increase in extracellular AK activity)
[27] = planktonic S. aureus, 384-well, cutoff for positive-scoring molecules 3-fold increase, read-out: AK-based Prestwick Library Screening Results: S. aureus (increase in extracellular AK activity)
[28] = planktonic E. faecium, 384-well, cutoff for positive-scoring molecules 3-fold increase, read-out: AK-based Prestwick Library Screening Results: E. faecium (increase in extracellular AK activity)
[29] = planktonic, cutoff for positive-scoring molecules 3-fold increase, read-out: AK-based Prestwick Library Screening Results, P. aeruginosa (fold increase in extracellular AK activity)
[30] = planktonic, cutoff for positive-scoring molecules 3-fold increase, read-out: AK-based Prestwick Library Screening Results, A. baumannii (fold increase in extracellular AK activity)
[31] = planktonic, cutoff for positive-scoring molecules 3-fold increase, read-out: AK-based Prestwick Library Screening Results, E. coli (fold increase in extracellular AK activity)
[32] = planktonic, cutoff for positive-scoring molecules 3-fold increase, read-out: AK-based Prestwick Library Screening Results, K. pneumoniae (fold increase in extracellular AK activity)
[33] = planktonic, cutoff for positive-scoring molecules 3-fold increase, read-out: AK-based Prestwick Library Screening Results, E. cloacae (fold increase in extracellular AK activity)
[34] = planktonic, cutoff for positive-scoring molecules 3-fold increase, read-out: AK-based Prestwick Library Screening Results, S. aureus (fold increase in extracellular AK activity)
[35] = planktonic, cutoff for positive-scoring molecules 3-fold increase, read-out: AK-based Prestwick Library Screening Results, E. faecium (fold increase in extracellular AK activity)
[36] = 384-well format, cutoff for positive-scoring molecules 3-fold increase

SMILES: CCCCOc1ccc(CC(=O)NO)cc1 [Bufexamac]
- fold induction at 50 µM [1, 8]: 0.5
- fold induction at 50 µM [2, 9]: 0.5
- fold induction at 50 µM [3, 10]: 0.5
- fold induction at 50 µM [4, 11]: 0.5
- fold induction at 50 µM [5, 12]: 0.6
- fold induction at 50 µM [6, 13]: 0.4
- fold induction at 50 µM [7, 14]: 0.9

SMILES: COc1cc(OC)c(C(=O)CCCN2CCCC2)c(OC)c1 [Buflomedil hydrochloride]
- fold induction at 50 µM [1, 15]: 0.8
- fold induction at 50 µM [2, 16]: 0.7
- fold induction at 50 µM [3, 17]: 0.8
- fold induction at 50 µM [4, 18]: 0.6
- fold induction at 50 µM [5, 19]: 0.9
- fold induction at 50 µM [6, 20]: 0.6
- fold induction at 50 µM [7, 21]: 0.8

SMILES: CCCCNc1cc(C(=O)O)cc(S(N)(=O)=O)c1Oc1ccccc1 [Bumetanide]
- fold induction at 50 µM [1, 8]: 0.8
- fold induction at 50 µM [2, 9]: 0.8
- fold induction at 50 µM [3, 10]: 0.9
- fold induction at 50 µM [4, 11]: 0.7
- fold induction at 50 µM [5, 12]: 1.3
- fold induction at 50 µM [6, 13]: 0.7
- fold induction at 50 µM [7, 14]: 0.9

SMILES: CCCCN1CCCCC1C(=O)Nc1c(C)cccc1C (stereo not shown) [Bupivacaine hydrochloride]
- fold induction at 50 µM [1, 22]: 1.2
- fold induction at 50 µM [2, 23]: 1.4
- fold induction at 50 µM [3, 24]: 1.3
- fold induction at 50 µM [4, 25]: 1
- fold induction at 50 µM [5, 26]: 1.5
- fold induction at 50 µM [6, 27]: 1.1
- fold induction at 50 µM [7, 28]: 1

SMILES: CC(NC(C)(C)C)C(=O)c1cccc(Cl)c1 (stereo not shown) [Bupropion hydrochloride]
- fold induction at 50 µM [1, 8]: 0.5
- fold induction at 50 µM [2, 9]: 0.5
- fold induction at 50 µM [3, 10]: 0.5
- fold induction at 50 µM [4, 11]: 0.5
- fold induction at 50 µM [5, 12]: 0.5
- fold induction at 50 µM [6, 13]: 0.5
- fold induction at 50 µM [7, 14]: 1

SMILES: CCCCN(CCCC)CCCOC(=O)c1ccc(N)cc1 [Butacaine]
- fold induction at 50 µM [1, 29]: 1
- fold induction at 50 µM [2, 30]: 0.9
- fold induction at 50 µM [3, 31]: 0.9
- fold induction at 50 µM [4, 32]: 0.8
- fold induction at 50 µM [5, 33]: 1.4
- fold induction at 50 µM [6, 34]: 0.8
- fold induction at 50 µM [7, 35]: 0.9

SMILES: CCCCOC(=O)c1ccc(N)cc1 [Butamben]
- fold induction at 50 µM [1, 29]: 0.9
- fold induction at 50 µM [2, 30]: 0.7
- fold induction at 50 µM [3, 31]: 0.8
- fold induction at 50 µM [4, 32]: 0.6
- fold induction at 50 µM [5, 33]: 1.7
- fold induction at 50 µM [6, 34]: 1.1
- fold induction at 50 µM [7, 35]: 0.8

SMILES: Clc1ccc(CCC(Cn2ccnc2)Sc2c(Cl)cccc2Cl)cc1 (stereo not shown) [Butoconazole nitrate]
- fold induction at 50 µM [1, 22]: 0.5
- fold induction at 50 µM [2, 23]: 2
- fold induction at 50 µM [3, 24]: 0.7
- fold induction at 50 µM [4, 25]: 0.7
- fold induction at 50 µM [5, 26]: 0.5
- fold induction at 50 µM [6, 27]: 0.6
- fold induction at 50 µM [7, 28]: 3.3

SMILES: CCCCOC(=O)c1ccc(O)cc1 [Butylparaben]
- fold induction at 50 µM ([1]; planktonic, […], read-out: AK-based Prestwick Library Screening Results, P. aeruginosa (fold increase in extracellular AK activity)): 0.6
- fold induction at 50 µM ([2]; planktonic, […], read-out: AK-based Prestwick Library Screening Results, A. baumannii (fold increase in extracellular AK activity)): 0.6
- fold induction at 50 µM ([3]; planktonic, […], read-out: AK-based Prestwick Library Screening Results, E. coli (fold increase in extracellular AK activity)): 0.5
- fold induction at 50 µM ([4]; planktonic, […], read-out: AK-based Prestwick Library Screening Results, K. pneumoniae (fold increase in extracellular AK activity)): 0.4
- fold induction at 50 µM ([5]; planktonic, […], read-out: AK-based Prestwick Library Screening Results, E. cloacae (fold increase in extracellular AK activity)): 1
- fold induction at 50 µM ([6]; planktonic, […], read-out: AK-based Prestwick Library Screening Results, S. aureus (fold increase in extracellular AK activity)): 0.7
- fold induction at 50 µM ([7]; planktonic, […], read-out: AK-based Prestwick Library Screening Results, E. faecium (fold increase in extracellular AK activity)): 0.5

SMILES: O=C(O)/C=C/c1ccc(O)c(O)c1 [Caffeic acid]
- fold induction at 50 µM [1, 29]: 0.9
- fold induction at 50 µM [2, 30]: 0.8
- fold induction at 50 µM [3, 31]: 1
- fold induction at 50 µM [4, 32]: 0.8
- fold induction at 50 µM [5, 33]: 1
- fold induction at 50 µM [6, 34]: 0.8
- fold induction at 50 µM [7, 35]: 0.9

SMILES: C=C1CC[C@H](O)C/C1=C/C=C1\CCC[C@]2(C)[C@@H]([C@H](C)/C=C/[C@H](C)C(C)C)CC[C@@H]12 [Calciferol]
- fold induction at 50 µM [1, 15]: 0.7
- fold induction at 50 µM [2, 16]: 0.7
- fold induction at 50 µM [3, 17]: 0.8
- fold induction at 50 µM [4, 18]: 0.7
- fold induction at 50 µM [5, 19]: 0.7
- fold induction at 50 µM [6, 20]: 0.5
- fold induction at 50 µM [7, 21]: 0.9

SMILES: CN1CC[C@]23c4ccccc4N[C@H]1[C@]21CCN(C)[C@H]3Nc2ccccc21 [Calycanthine]
- AK-based Prestwick Library Screening Results, P. aeruginosa (increase in extracellular AK activity) ([1]; planktonic P. aeruginosa, […]): 0.8
- AK-based Prestwick Library Screening Results, A. baumannii (increase in extracellular AK activity) ([2]; planktonic A. baumannii, […]): 0.8
- AK-based Prestwick Library Screening Results, E. coli (increase in extracellular AK activity) ([3]; planktonic E. coli, […]): 0.9
- AK-based Prestwick Library Screening Results, K. pneumoniae (increase in extracellular AK activity) ([4]; planktonic K. pneumoniae, […]): 0.7
- AK-based Prestwick Library Screening Results, E. cloacae (increase in extracellular AK activity) ([5]; planktonic E. cloacae, […]): 1.2
- AK-based Prestwick Library Screening Results, S. aureus (increase in extracellular AK activity) ([6]; planktonic S. aureus, […]): 0.6
- AK-based Prestwick Library Screening Results, E. faecium (increase in extracellular AK activity) ([7]; planktonic E. faecium, […]): 0.8

SMILES: CC[C@@]1(O)C(=O)OCc2c1cc1n(c2=O)Cc2cc3ccccc3nc2-1 [Camptothecine (S,+)]
- AK-based Prestwick Library Screening Results, P. aeruginosa (increase in extracellular AK activity) [1, 36]: 0.8
- AK-based Prestwick Library Screening Results, A. baumannii (increase in extracellular AK activity) [2, 36]: 0.8
- AK-based Prestwick Library Screening Results, E. coli (increase in extracellular AK activity) [3, 36]: 0.9
- AK-based Prestwick Library Screening Results, K. pneumoniae (increase in extracellular AK activity) [4, 36]: 0.8
- AK-based Prestwick Library Screening Results, E. cloacae (increase in extracellular AK activity) [5, 36]: 1.1
- AK-based Prestwick Library Screening Results, S. aureus (increase in extracellular AK activity) [6, 36]: 0.7
- AK-based Prestwick Library Screening Results, E. faecium (increase in extracellular AK activity) [7, 36]: 0.9
